Assay results: US11781149B2, “Systems and methods for control of gene expression” (TRUSTEES OF BOSTON UNIVERSITY, priority 2018, dated 2023)

T1: syntrophin PDZ domain (Mus musculus, UniProt Q61234)
T1 construct: syn PDZ1; made in house; host or cells: E. coli BL-21 Rosetta (DE3)pLysS, pMAL-c5X vector
T1 sequence (Q61234 77-171): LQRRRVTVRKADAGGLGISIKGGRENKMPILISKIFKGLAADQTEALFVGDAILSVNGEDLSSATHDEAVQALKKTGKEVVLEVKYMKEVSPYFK


Key:
erbin PDZ domain = molecular target: T2, erbin PDZ domain (Homo sapiens, UniProt Q96RT1, V1340R); assay: Fluorescence anisotropy PDZ-ligand competition binding, erbin; design: key to Erb Kd (μM), PDZ affinity (Kp): nb indicates no binding; conditions: for Kd: read-out: Erb Kd (μM), PDZ affinity (Kp)
T2 construct: made in house; host or cells: E. coli BL-21 Rosetta (DE3)pLysS, pMAL-c5X vector
T2 sequence (Q96RT1 with tags, fused parts or gaps V1340R): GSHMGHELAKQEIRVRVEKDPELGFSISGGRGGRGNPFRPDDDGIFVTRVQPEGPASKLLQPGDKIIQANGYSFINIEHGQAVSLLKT
Description: (§1) Probes were generated by annealing an unlabeled top oligo to a labeled bottom oligo in a 2:1 ratio, while binding competitor oligos were generated using unlabeled top and bottom oligos mixed at equimolar ratios. For PDZ binding experiments, fluorescein-labeled peptide probe (ordered from Selleckhem) used for PDZ binding measurements contained the sequence VKESLV* (SEQ ID NO: 6), where the N-terminus was labeled with a FITC conjugate. Probe concentration was assessed by measuring Abs490. Competitor peptides were purified as MBP-ZF43-8 fusions (see e.g., FIG. 5A-FIG. 5B, FIG. 7A-FIG. 7B).
(§2) All assays were conducted in 20 mM Tris, pH 7.5, 100 mM […], 50 μM ZnCl2 buffer at 25° C. Proteins, probes, and competitor oligos were added to a final volume of 300 μL. Probes were used at 10 nM in all experiments. For complex assembly experiments (FIG. 1C), indicated concentrations of MBP-ZF43-8 harboring a VSKESLV* ligand (SEQ ID NO: 120) (see e.g., FIG. 5A-FIG. 5B, FIG. 7A-FIG. 7B) were titrated against 5 μM concentrations of clamp. Mixtures were allowed to equilibrate at 25° C. for 10 min in Costar black 96-well plates prior to reading. Fluorescence anisotropy (FA) measurements were made at 494 nm using a SpectraMax M5 (Molecular Devices) fluorescence plate reader. For all measurements, anisotropy (r) was calculated using the following equation, wherein I∥ and I⊥ are parallel and perpendicular fluorescence, respectively:
(§3) Fraction of bound probe was calculated using the following equation, wherein rbound and rfree are the anisotropy values for fully bound and fully unbound probe, respectively:
(§4) Each of these values was measured independently of binding curves with either a 100× excess or absence of ZF (in the case of ZF-oligo binding) or PDZ (in the case of PDZ-ligand binding). Q is the ratio of total fluorescence (measured at 454 nm) under rbound and rfree conditions. To obtain binding constants for ZF-probe and PDZ-probe interactions, binding data were fit to the following quadratic equation, wherein [P] is the total concentration of either ZF or PDZ, [probe] is the total concentration of the oligo or peptide probe, and Kd is the dissociation constant of the interaction:
(§5) Competition binding curves were calculated by fitting competition binding curves to the following cubic equation, wherein fb is fraction probe bound, [L*T] is the total probe concentration, [RT] and [R] are total and free concentrations of the ZF, respectively, while [LT] and [L] are total and free concentrations of competitor. Kd1 is the affinity for TF and probe, while Kd2 is the affinity between TF and competitor:
(§6) As a first step toward construction of a molecular assembly scheme amenable to modeling, a set of part variants was identified comprising a range of Kt and Kp values, and then in vitro binding experiments were conducted to directly measure their binding affinities (see e.g., FIG. 6, FIG. 7A, FIG. 7B). […] For each ZF, previously described R-to-A ZF backbone mutations were used as affinity variants (see e.g., Khalil et al., Cell. 150, 647-658 2012). DBM affinity series (DBM1, DBM2, etc.) for both ZFs by were also generated by systematically mutating nucleotides both in the core and directly flanking the core 9-bp recognition sequence (ZF 1: a[…]c (SEQ ID NO: 99); ZF2: a[…]c (SEQ ID NO: 102)). Similarly, PDZ-ligand affinities were measured for two domains (syntrophin ‘syn’ and erbin ‘erb’) and their respective partner ligands. For each pair, ligands of various affinities were obtained from published reports (S1, S2, . . .; E1, E2, . . . )12, 13 (see e.g., FIG. 7A, FIG. 7B). Altogether, this yielded a set of component interactions consisting of 15 ZF-DNA and 13 PDZ-ligand pairs with in vitro-measured values ranging from mid μM to low nM, permitting broad, tunable control of Kt and Kp.
(§7) PDZ-ligand binding constants were measured in vitro by fluorescence anisotropy. Recombinant proteins were purified as described herein. […]

syntrophin PDZ domain = molecular target: T1, syntrophin PDZ domain; assay: Fluorescence anisotropy PDZ-ligand binding, syntrophin, direct and competition; design: key to Syn Kd (μM), PDZ affinity (Kp): nb indicates no binding; conditions: for Kd: read-out: Syn Kd (μM), PDZ affinity (Kp)
Description: as §1, §2, §3, §4, §5, §6, §7

[1] = test system: DBM oligo probe (FITC labeled); assay: In vitro complex assembly: synTF titration of DBM oligo probe with or without clamp (fluorescence anisotropy); type: binding
Text: FIG. 1A-FIG. 1E is a series of graphs and schematics showing the design scheme for assembly-mediated regulatory control of synthetic gene circuits. (FIG. 1A) Nodes in cellular networks use one-to-one regulatory interactions to execute simple computation-al tasks (top); cooperative interactions within multivalent assemblies enable complex, non-linear signal processing (bottom). (FIG. 1B) Design of synthetic TF regulatory assemblies. Complexes are built from interaction domains (ZF and PDZ) and their respective binding partners (DBM and PDZ ligand). Clamp-mediated synTF complex-formation (TA, transcriptional activator domain drives coding sequence transcription). Interaction affinities (Kt and Kp) and the number of repeated complex units (nc) determine thermodynamics of assembly. (FIG. 1C) In vitro assembly of purified cooperative complex components. Fluorescence anisotropy for synTF titration of DBM oligo probe ([…]) and converted to fraction probe bound (Nb, synTFs with binding-deficient PDZ ligand mutants; nc, number of PDZ domains per clamp and DBMs probe). Points represent mean values for three measurements±SE. (FIG. 1D) Testing in vivo complex assembly in yeast using a synthetic gene circuit (GFP output). All genes are chromosomally-integrated (left; see e.g., Table 4). Small molecule-inducible expression systems (ncTET and ncZEV) control intracellular expression levels (see e.g., FIG. 8A, FIG. 8B) of synTF (induced by ATc, 2-500 ng/mL) and clamp (EST, 0.05-12.5 nM), respectively. Adjusting molecular features of assembly (Kt, Kp, nc) tunes overall circuit transfer function (right). (FIG. 1E) Parameterization of thermodynamic complex assembly model. Dose response data for circuit configurations with various Kt, Kp, nc values were fit to a thermodynamic model (see e.g., FIG. 10, FIG. 11); regression plot showing residual from fit are shown at the right. MAE, mean absolute error.
Thus, synTF binding cooperativity is enhanced by the clamp and scales in magnitude with complex size.
as §2, with “For complex assembly experiments (FIG. 1C), indicated concentrations of MBP-ZF43-8 harboring a VSKESLV* ligand (SEQ ID NO: 120) (see e.g., FIG. 5A-FIG. 5B, FIG. 7A-FIG. 7B) were titrated against 5 μM concentrations of clamp.” left out
Species used in the binding assay are described in FIG. 5A and FIG. 5B, and descriptions for protein purification and the binding assay are described elsewhere herein. […]

[2] = test system: HEK293FT reporter cell line; assay: Clamp assembly-mediated transcriptional activation, mCherry reporter by flow cytometry; type: cell-based; conditions: transfected into HEK293FT reporter line, 4 tandem DBMs, pMinCMV
Text: In the work in yeast, clamp-dependent assembly was initially based on the ability of a zinc finger-based synthetic transcription factor (synTF) and clamp to induce higher reporter activation when co-expressed. To test the possibility that assembly-mediated gene expression also works in mammalian cells, a similar approach was taken. Expression plasmids were generated for synTF (sequence descriptions in Example 7) and a 2-unit (nc=2) clamp (sequence description in Example 7), both driven by a strong UBC promoter (pUBC, Ubiquitin C promoter). A corresponding HEK293FT reporter cell line was generated by lentiviral transduction of a synTF-responsive reporter construct, composed of 4 tandem 20-bp DNA-binding motifs (DBMs) upstream of a minimal CMV promoter (pMinCMV) driving expression of an mCherry fluorescent protein.
Different combinations of the synTF and clamp expression plasmids were transfected into the HEK293FT reporter line, and mCherry reporter expression was assayed using flow cytometry (see e.g., FIG. 19).

| Erb Kd (μM), PDZ affinity (Kp) (erbin PDZ domain) | Kd (syntrophin PDZ domain) [µM] | Kd (erbin PDZ domain) [µM] | Molecule | also measured |
| --- | --- | --- | --- | --- |
| nb | 43.2 | – | HLETFF | – |
| nb | 0.062 | – | IRETII | – |
| nb | 0.18 | – | IRETIL | – |
| – | 0.88 | 3.46 | IRETIV | – |
| – | 0.49 | 1.73 | IRWTIV | – |
| – | 1.57 | 0.42 | PVDSWV | – |
| nb | – | – | VKEAAA | Syn Kd (μM), PDZ affinity (Kp) (syntrophin PDZ domain): nb |
| nb | 27.3 | – | VKEALV | – |
| – | 1.97 | 5.71 | VKESLV | – |
| – | – | 0.33 | WLKTWV | Syn Kd (μM), PDZ affinity (Kp) (syntrophin PDZ domain): nb |
| – | – | 0.1 | WLVTWV | Syn Kd (μM), PDZ affinity (Kp) (syntrophin PDZ domain): nb |
| – | – | – | synTF: MBP-ZF43-8 fusion harboring a VKESLV-type syntrophin PDZ ligand, titrated against DBM oligo probe (protein, left off: large carriers, MBP-ZF43-8 fusion harboring a VKESLV-type syntrophin PDZ ligand, titrated against DBM oligo probe) GEAPFQCRICMANFSRQDRLDRHTRTHTGEKPFQCRICMANFSQKEHLAGHLRTHTGEKPFQCRICMANFSRRDNLNRHLKTHLRGSGSGVKESLV | cooperativity (nH) ([1]; nc=2 probe, two-PDZ clamp added (2 μM)): 1.81; cooperativity (nH) ([1]; nc=2 probe, without clamp): 1.07; EC50 ([1]; nc=2 probe, without clamp, read-out: affinity of synTFs for the probe (EC50)): 210 nM; cooperativity (nH) ([1]; nc=3 probe and three-repeat clamp): 2.55 |
| – | – | – | clamp: SEQ ID NO: 144, 2-unit clamp of α-syntrophin PDZ domains with 3x FLAG tag and NLS (protein) MDYKDHDGDYKDHDIDYKDDDDKMAPKKKRKVVELQRRRVTVRKADAGGLGISIKGGRENKMPILISKIFKGLAADQTEALFVGDAILSVNGEDLSSATHDEAVQALKKTGKEVVLEVKYMKEVSPYFKGSGGSSGSGPGSSGGSGPGSGSSGGSGSGPGSGGSSGPGSETELVELQRRRVTVRKADAGGLGISIKGGRENKMPILISKIFKGLAADQTEALFVGDAILSVNGEDLSSATHDEAVQALKKTGKEVVLEVKYMKEVSPYFKG | mCherry reporter expression [2]: enhancement of reporter activation |
